This note sets out measurements from article PMC11733953, “Identification of a Potent CDK8 Inhibitor Using Structure-Based Virtual Screening” (Journal of Chemical Information and Modeling, 2024).

This test addresses Cyclin-dependent kinase 8 (CDK8) (Homo sapiens, UniProt P49336). Put plainly: LanthaScreen Eu kinase binding assay (TR-FRET displacement of Tracer […]), dose-response; […] inhibition at […] in 60-kinase panel. Background: TR-FRET usually uses a lanthanide donor and a delayed reading to cut background.

pIC50: −log10 of the molar value.

Cyclin-dependent kinase 8 (CDK8), sequence (P49336 whole entry): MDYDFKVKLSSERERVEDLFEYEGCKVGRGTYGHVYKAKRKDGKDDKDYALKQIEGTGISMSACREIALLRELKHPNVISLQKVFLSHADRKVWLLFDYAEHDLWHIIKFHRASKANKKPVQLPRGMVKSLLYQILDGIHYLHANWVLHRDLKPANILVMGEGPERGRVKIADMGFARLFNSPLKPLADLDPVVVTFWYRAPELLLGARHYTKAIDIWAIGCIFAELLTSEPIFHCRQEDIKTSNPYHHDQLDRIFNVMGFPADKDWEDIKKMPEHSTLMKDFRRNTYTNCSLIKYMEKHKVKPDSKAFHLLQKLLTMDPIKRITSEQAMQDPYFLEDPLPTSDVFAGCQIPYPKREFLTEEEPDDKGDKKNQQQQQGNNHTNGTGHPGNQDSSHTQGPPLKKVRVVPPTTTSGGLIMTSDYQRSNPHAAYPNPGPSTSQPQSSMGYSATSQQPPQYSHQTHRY
Cyclin-dependent kinase 8 (CDK8), sequence (P24863 whole entry partner): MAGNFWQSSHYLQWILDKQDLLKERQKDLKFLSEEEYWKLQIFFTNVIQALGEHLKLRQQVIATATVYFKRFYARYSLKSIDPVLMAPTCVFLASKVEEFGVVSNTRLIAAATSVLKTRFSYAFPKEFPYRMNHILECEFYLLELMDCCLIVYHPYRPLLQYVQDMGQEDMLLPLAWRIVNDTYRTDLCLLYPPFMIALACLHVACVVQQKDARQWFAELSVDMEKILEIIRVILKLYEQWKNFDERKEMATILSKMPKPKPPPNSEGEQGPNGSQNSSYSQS

As usually defined, the pIC50 is the IC50 on a negative log10 scale, so that one unit is a factor of ten. Read a low pIC50 as a high IC50. Turning to `O=C(Cc1nnc(-c2ccc3ncccc3c2)o1)NCc1ccc(F)cc1` [P162-0948], the pIC50 was 7.30.
